Drawing on ChEMBL document CHEMBL1158892, “Cationic reduction of bastadin-4 to bastadin-5. Preparation of 5-[2h]-bastadin-5 by site-specific isotopic labeling” (J Nat Prod, 2003), this text covers ED50 for one compound.

The experiment deals with Ryanodine receptor 1 (Homo sapiens) (UniProt P21817). The experiment can be described thus: Displacement of [3H]ryanodine from RyR1 calcium channel in sarcoplasmic reticulum assessed as calcium mobilization. On the technique in general: In a radioligand displacement assay an active substance lowers the binding of a labelled ligand.
Chain of Ryanodine receptor 1 (Homo sapiens) (P21817 whole entry): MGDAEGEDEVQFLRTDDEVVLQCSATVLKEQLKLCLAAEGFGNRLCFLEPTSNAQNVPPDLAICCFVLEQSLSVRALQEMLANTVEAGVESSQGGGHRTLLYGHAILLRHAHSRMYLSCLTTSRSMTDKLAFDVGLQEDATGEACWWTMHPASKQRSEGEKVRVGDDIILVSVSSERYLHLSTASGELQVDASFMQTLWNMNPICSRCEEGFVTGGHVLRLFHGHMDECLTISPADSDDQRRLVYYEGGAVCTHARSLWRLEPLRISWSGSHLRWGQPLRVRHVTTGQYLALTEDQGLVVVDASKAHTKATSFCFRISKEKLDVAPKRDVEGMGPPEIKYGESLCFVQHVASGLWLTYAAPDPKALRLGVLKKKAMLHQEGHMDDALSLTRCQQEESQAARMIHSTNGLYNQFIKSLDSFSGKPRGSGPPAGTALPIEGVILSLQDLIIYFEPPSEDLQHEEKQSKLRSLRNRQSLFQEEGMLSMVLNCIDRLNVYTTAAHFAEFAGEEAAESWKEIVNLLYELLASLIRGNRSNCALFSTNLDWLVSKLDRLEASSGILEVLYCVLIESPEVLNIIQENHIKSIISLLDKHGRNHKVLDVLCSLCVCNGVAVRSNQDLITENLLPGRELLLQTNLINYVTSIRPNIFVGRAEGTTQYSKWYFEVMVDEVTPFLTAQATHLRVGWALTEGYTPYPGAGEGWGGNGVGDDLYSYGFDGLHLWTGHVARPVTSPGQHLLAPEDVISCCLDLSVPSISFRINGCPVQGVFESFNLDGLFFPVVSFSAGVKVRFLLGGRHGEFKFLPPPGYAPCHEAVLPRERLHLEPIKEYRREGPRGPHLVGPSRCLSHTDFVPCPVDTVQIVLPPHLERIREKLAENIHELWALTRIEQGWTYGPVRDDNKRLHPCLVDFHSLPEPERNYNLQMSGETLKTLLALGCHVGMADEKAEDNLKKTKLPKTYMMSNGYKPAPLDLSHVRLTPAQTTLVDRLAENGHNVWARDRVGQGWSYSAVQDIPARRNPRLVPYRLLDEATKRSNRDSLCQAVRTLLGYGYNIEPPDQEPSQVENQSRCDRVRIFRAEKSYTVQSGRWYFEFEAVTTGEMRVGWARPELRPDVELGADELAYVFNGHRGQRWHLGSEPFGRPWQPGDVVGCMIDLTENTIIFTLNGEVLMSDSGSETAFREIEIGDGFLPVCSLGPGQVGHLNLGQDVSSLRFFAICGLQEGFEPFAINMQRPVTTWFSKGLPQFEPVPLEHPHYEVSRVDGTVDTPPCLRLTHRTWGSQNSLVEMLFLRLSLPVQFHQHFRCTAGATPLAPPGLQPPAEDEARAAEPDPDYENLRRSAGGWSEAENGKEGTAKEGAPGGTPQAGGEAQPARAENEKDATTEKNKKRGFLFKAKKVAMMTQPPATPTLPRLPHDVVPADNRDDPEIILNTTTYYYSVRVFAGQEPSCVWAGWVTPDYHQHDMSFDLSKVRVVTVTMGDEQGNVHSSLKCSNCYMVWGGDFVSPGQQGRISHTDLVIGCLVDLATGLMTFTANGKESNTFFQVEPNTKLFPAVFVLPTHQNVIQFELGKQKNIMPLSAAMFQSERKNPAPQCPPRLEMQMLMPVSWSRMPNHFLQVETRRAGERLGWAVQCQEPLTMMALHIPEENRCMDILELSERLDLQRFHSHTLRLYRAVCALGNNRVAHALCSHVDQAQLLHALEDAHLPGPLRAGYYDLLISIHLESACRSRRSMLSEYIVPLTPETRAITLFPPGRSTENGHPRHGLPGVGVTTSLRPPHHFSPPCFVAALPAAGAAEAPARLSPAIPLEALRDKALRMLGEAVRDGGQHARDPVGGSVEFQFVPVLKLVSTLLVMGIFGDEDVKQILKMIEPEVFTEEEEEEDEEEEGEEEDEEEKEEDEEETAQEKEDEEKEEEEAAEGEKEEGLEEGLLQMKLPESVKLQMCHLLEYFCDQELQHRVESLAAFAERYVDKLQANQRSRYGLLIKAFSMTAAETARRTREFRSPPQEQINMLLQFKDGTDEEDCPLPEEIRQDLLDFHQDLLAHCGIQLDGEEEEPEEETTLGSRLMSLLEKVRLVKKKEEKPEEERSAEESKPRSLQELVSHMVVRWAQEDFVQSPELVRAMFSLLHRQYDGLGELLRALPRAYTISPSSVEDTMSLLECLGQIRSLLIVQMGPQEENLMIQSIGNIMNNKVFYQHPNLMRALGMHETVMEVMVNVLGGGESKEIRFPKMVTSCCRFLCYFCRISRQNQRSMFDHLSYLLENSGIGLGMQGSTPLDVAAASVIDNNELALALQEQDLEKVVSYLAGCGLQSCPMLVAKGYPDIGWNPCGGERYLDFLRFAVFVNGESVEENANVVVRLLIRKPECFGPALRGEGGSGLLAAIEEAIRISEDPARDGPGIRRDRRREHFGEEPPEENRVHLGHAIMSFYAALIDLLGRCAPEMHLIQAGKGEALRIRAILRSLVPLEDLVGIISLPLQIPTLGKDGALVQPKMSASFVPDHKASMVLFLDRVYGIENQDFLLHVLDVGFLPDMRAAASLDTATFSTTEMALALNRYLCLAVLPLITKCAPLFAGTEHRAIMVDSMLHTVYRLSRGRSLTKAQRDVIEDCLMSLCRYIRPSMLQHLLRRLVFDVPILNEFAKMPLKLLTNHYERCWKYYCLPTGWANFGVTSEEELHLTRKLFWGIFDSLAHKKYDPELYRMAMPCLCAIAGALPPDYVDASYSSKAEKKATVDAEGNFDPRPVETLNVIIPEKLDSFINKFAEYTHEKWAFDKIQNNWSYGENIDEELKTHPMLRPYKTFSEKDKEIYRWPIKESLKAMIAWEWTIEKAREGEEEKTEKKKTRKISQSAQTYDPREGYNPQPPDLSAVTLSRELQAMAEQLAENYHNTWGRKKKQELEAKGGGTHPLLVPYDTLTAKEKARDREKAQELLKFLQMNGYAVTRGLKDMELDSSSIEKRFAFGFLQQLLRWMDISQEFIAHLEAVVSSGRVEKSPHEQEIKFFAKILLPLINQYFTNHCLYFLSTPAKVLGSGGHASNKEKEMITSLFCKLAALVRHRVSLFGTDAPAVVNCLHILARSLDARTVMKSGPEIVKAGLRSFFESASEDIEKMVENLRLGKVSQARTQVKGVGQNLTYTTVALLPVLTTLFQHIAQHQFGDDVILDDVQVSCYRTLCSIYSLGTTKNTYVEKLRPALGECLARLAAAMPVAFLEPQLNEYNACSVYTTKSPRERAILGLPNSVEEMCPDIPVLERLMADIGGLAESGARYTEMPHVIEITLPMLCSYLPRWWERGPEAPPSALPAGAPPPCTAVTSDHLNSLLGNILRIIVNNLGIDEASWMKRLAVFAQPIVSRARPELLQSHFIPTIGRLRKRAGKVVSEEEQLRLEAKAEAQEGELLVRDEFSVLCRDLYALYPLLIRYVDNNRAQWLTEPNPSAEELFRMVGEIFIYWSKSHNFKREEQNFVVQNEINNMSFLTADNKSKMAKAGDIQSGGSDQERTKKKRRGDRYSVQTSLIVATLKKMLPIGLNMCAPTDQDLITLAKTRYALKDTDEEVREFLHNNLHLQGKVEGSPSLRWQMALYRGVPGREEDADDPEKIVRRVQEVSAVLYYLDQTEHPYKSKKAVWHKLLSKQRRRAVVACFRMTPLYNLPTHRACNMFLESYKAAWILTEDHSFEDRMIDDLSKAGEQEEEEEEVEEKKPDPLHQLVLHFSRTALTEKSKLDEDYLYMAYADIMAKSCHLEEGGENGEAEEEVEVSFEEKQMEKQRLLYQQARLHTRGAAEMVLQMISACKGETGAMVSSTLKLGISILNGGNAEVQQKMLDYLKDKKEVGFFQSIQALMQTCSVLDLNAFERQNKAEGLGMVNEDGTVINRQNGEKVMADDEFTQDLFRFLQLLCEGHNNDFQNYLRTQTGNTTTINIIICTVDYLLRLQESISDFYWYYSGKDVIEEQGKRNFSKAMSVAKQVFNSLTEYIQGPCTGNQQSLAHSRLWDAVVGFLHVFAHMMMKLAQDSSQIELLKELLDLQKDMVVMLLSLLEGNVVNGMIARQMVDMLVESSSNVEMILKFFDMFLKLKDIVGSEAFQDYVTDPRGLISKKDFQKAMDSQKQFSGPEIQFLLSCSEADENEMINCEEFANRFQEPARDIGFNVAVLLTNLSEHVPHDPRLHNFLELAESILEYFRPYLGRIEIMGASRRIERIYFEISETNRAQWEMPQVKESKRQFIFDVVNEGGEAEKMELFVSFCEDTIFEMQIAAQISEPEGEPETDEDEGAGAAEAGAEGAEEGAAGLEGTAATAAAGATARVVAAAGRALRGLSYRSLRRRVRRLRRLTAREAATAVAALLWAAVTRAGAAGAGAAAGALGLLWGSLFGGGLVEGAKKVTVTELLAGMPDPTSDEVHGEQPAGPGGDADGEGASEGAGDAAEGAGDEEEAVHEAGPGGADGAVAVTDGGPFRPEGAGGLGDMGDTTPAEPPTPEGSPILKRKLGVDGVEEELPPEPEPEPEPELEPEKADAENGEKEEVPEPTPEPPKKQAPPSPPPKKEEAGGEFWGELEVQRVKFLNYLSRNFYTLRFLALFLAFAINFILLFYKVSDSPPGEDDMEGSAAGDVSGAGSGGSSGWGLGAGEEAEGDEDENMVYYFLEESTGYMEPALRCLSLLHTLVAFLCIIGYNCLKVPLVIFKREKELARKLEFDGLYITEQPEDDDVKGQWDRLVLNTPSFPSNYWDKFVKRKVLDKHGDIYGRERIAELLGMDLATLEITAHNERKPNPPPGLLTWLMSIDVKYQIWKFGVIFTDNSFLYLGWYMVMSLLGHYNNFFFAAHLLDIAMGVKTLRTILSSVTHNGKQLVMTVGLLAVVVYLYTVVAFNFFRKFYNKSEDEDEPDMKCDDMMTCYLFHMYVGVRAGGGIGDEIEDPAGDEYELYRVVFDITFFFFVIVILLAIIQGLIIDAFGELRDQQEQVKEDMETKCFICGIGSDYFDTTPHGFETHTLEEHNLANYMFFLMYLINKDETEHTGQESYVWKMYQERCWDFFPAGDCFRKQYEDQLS

`O=C1NCCc2cc(Br)c(O)c(c2)Oc2ccc(cc2Br)CCNC(=O)/C(=N\O)Cc2cc(Br)c(O)c(c2)Oc2c(Br)cc(cc2Br)C/C1=N/O`: the ED50 came out at 2300 nM.
